In US11951171B2, “Polypeptide EXP and its drug delivery system as well as extracellular vesicle extraction” (TIANJIN MEDICAL UNIVERSITY, priority 2019, dated 2024):

Assays:
[1] = tested on: exosomes derived from murine myotubes(EXOmyotube), cardiac sphere cells (CDC) (EXOCDC) and human serum (EXOserum); assay: Binding efficiency with exosomes from different sources (flow cytometry)
Protocol: FAM-labeled CP05 or EXP was co-incubated with exosomes derived from murine myotubes(EXOmyotube), cardiac sphere cells (CDC) (EXOCDC) and human serum (EXOserum), and the binding efficiency was detected with flow cytometry. It's shown by the results that the binding efficiency of CP05 to exosomes from different sources is about 70%, and the binding efficiency of the same amount of EXP with exosomes from corresponding sources was about 90%.
Experimental example 5: Comparison on binding efficiency of EXP and exosomes from different sources. • (1) 0.06 μg FAM-labeled CP05 and 0.06 μg of different peptides were respectively mixed with 10 μg exosome from dC2C12, CDC, serum, and DPBS was used to make up a deficiency to 200 μl. • (2) The mixture was incubated for 2-4 hrs at 4° C. under rotation in vertical shaker. • (3) The binding efficiency was detected with flow cytometry.

[2] = tested on: exosomes recovered by EXP; assay: Binding efficiency of CP05 and EXP with serum exosomes recovered by EXP; conditions: serum exosomes recovered by EXP (FIG. 6E)

Sequence: CRHKMWTVKSRL (EXP)
- binding efficiency to exosomes from serum compared with CP05 ([1]; exosomes from serum): significantly higher than that of CP05
- binding efficiency to exosomes from different sources ([1]; same amount of FAM-labeled peptide, EXOmyotube, EXOCDC, EXOserum): about 90%
- binding efficiency with recovered exosomes [2]: 95.9%
